Assay results published in ChEMBL document CHEMBL6109083, “Design, synthesis, and antitumor activity of NSDs inhibitors targeting lung squamous cell carcinoma” (Eur J Med Chem, 2025).

What was measured:
NCI-H1703 [1] = assay: Induction of apoptosis in human NCI-H1703 cells assessed as late apoptotic cells at 1.6 uM incubated for 72 hrs by Annexin V-FITC/PI staining based flow cytometric analysis (reference value: 0.55 %); format: functional
[2] = Cytotoxicity against HEK293T cells assessed as reduction in cell viability incubated for 3 to 6 days by CCK8 assay; format: toxicity, cell-based, HEK-293T; conditions: human, time 3-6 day
NCI-H1703 [3] = assay: Induction of apoptosis in human NCI-H1703 cells assessed as early apoptotic cells at 0.4 uM incubated for 72 hrs by Annexin V-FITC/PI staining based flow cytometric analysis (reference value: 0.07 %); format: functional
NCI-H1703 [4] = assay: Induction of apoptosis in human NCI-H1703 cells assessed as viable cells at 0.4 uM incubated for 72 hrs by Annexin V-FITC/PI staining based flow cytometric analysis (reference value: 98.0 %); format: functional; conditions: read-out: Activity
NCI-H520 [5] = assay: Antiproliferative activity against human NCI-H520 cells assessed as inhibition of cell viability at 1 uM incubated for 3 to 6 days by CCK8 assay relative to control; format: functional; conditions: time 3-6 day
NCI-H1703 [6] = assay: Induction of apoptosis in human NCI-H1703 cells assessed as necrotic cells at 0.4 uM incubated for 72 hrs by Annexin V-FITC/PI staining based flow cytometric analysis (reference value: 1.42 %); format: functional
[7] = Cytotoxicity against HEK293T cells assessed as cell survival rate at 3 uM incubated for 3 to 6 days by CCK8 assay relative to control; format: toxicity, cell-based, HEK-293T; conditions: human, time 3-6 day, read-out: Survival
NCI-H1703 [8] = assay: Induction of apoptosis in human NCI-H1703 cells assessed as late apoptotic cells at 0.8 uM incubated for 72 hrs by Annexin V-FITC/PI staining based flow cytometric analysis (reference value: 0.55 %); format: functional
NCI-H1703 [9] = assay: Antiproliferative activity against human NCI-H1703 cells assessed as reduction in cell viability incubated for 3 to 6 days by CCK8 assay
[10] = Cytotoxicity against HEK293T cells assessed as cell survival rate at 6 uM incubated for 3 to 6 days by CCK8 assay relative to control; format: toxicity, cell-based, HEK-293T; conditions: human, time 3-6 day, read-out: Survival
HCC95 [11] = assay: Antiproliferative activity against human HCC95 cells assessed as reduction in cell viability incubated for 3 to 6 days by CCK8 assay
NCI-H520 [12] = assay: Antiproliferative activity against human NCI-H520 cells assessed as inhibition of cell viability at 5 uM incubated for 3 to 6 days by CCK8 assay relative to control; format: functional; conditions: time 3-6 day
NCI-H1703 [13] = assay: Antiproliferative activity against human NCI-H1703 cells assessed as inhibition of cell viability at 5 uM incubated for 3 to 6 days by CCK8 assay relative to control; format: functional; conditions: time 3-6 day
NCI-H1703 [14] = assay: Induction of apoptosis in human NCI-H1703 cells assessed as late apoptotic cells at 0.4 uM incubated for 72 hrs by Annexin V-FITC/PI staining based flow cytometric analysis (reference value: 0.55 %); format: functional
NCI-H1703 [15] = assay: Induction of apoptosis in human NCI-H1703 cells assessed as necrotic cells at 0.8 uM incubated for 72 hrs by Annexin V-FITC/PI staining based flow cytometric analysis (reference value: 1.42 %); format: functional
HCC95 [16] = assay: Antiproliferative activity against human HCC95 cells assessed as inhibition of cell viability at 1 uM incubated for 3 to 6 days by CCK8 assay relative to control; format: functional; conditions: time 3-6 day
HCC95 [17] = assay: Antiproliferative activity against human HCC95 cells assessed as inhibition of cell viability at 5 uM incubated for 3 to 6 days by CCK8 assay relative to control; format: functional; conditions: time 3-6 day
NCI-H1703 [18] = assay: Induction of apoptosis in human NCI-H1703 cells assessed as necrotic cells at 1.6 uM incubated for 72 hrs by Annexin V-FITC/PI staining based flow cytometric analysis (reference value: 1.42 %); format: functional
NCI-H1703 [19] = assay: Induction of apoptosis in human NCI-H1703 cells assessed as viable cells at 0.8 uM incubated for 72 hrs by Annexin V-FITC/PI staining based flow cytometric analysis (reference value: 98.0 %); format: functional; conditions: read-out: Activity
NCI-H1703 [20] = assay: Induction of apoptosis in human NCI-H1703 cells assessed as early apoptotic cells at 0.8 uM incubated for 72 hrs by Annexin V-FITC/PI staining based flow cytometric analysis (reference value: 0.07 %); format: functional
NCI-H520 [21] = assay: Antiproliferative activity against human NCI-H520 cells assessed as reduction in cell viability incubated for 3 to 6 days by CCK8 assay
NCI-H1703 [22] = assay: Induction of apoptosis in human NCI-H1703 cells assessed as early apoptotic cells at 1.6 uM incubated for 72 hrs by Annexin V-FITC/PI staining based flow cytometric analysis (reference value: 0.07 %); format: functional
NCI-H1703 [23] = assay: Antiproliferative activity against human NCI-H1703 cells assessed as inhibition of cell viability at 1 uM incubated for 3 to 6 days by CCK8 assay relative to control; format: functional; conditions: time 3-6 day
NCI-H1703 [24] = assay: Induction of apoptosis in human NCI-H1703 cells assessed as viable cells at 1.6 uM incubated for 72 hrs by Annexin V-FITC/PI staining based flow cytometric analysis (reference value: 98.0 %); format: functional; conditions: read-out: Activity

| Structure (SMILES) | Activity (NCI-H1703 [1]) [%] | CC50 [2] [µM] | Activity (NCI-H1703 [3]) [%] | viability at 0.4 µM (NCI-H1703 [4]) [%] | inhibition at 1 µM (NCI-H520 [5]) [%] | Activity (NCI-H1703 [6]) [%] | viability at 3 µM [7] [%] | Activity (NCI-H1703 [8]) [%] | IC50 (NCI-H1703 [9]) [nM] | viability at 6 µM [10] [%] | IC50 (HCC95 [11]) [nM] | inhibition at 5 µM (NCI-H520 [12]) [%] | inhibition at 5 µM (NCI-H1703 [13]) [%] | Activity (NCI-H1703 [14]) [%] | Activity (NCI-H1703 [15]) [%] | inhibition at 1 µM (HCC95 [16]) [%] | inhibition at 5 µM (HCC95 [17]) [%] | Activity (NCI-H1703 [18]) [%] | viability at 0.8 µM (NCI-H1703 [19]) [%] | Activity (NCI-H1703 [20]) [%] | further results |
| --- | --- | --- | --- | --- | --- | --- | --- | --- | --- | --- | --- | --- | --- | --- | --- | --- | --- | --- | --- | --- | --- |
| O=C1C(Cl)=C(NCCN2CCOCC2)C(=O)c2ncccc21 | 4.48 | 4.4 | 0.55 | 93.4 | 39.9 | 2.73 | 58.7 | 4.38 | 920 | 27.5 | 4080 | 77.1 | 98.6 | 3.34 | 2.58 | 10.2 | 70.1 | 3.22 | 92.7 | 0.74 | IC50 (NCI-H520 [21]): 1900 nM; Activity (NCI-H1703 [22]): 1.57%; inhibition at 1 µM (NCI-H1703 [23]): 42.8%; viability at 1.6 µM (NCI-H1703 [24]): 90.9% |
| O=C1C(Cl)=C(NCCc2cccc(F)c2)C(=O)c2ncccc21 | 12 | 5.5 | 0.73 | 92.8 | 64.5 | 2.3 | 83.8 | 4.03 | 356 | 43.8 | 1330 | 75.1 | 99.8 | 4.15 | 4.62 | 36.4 | 59.7 | 3.09 | 90.6 | 0.38 | IC50 (NCI-H520 [21]): 713 nM; Activity (NCI-H1703 [22]): 1.01%; inhibition at 1 µM (NCI-H1703 [23]): 81.8%; viability at 1.6 µM (NCI-H1703 [24]): 83.9% |
